Assay results: patent US11319526B2, “Methods and compositions for making antibodies and antibody derivatives with reduced core fucosylation” (Seagen Inc., priority 2008, dated 2022)

Assays:
[1] = system: antibody core fucosylation in CHO DG44 cell line producing h1F6; assay: Effect of fucose analogs on antibody core fucosylation (h1F6 from CHO DG44 culture); assay type: cell-based, Chinese hamster; conditions: Cricetulus griseus, CHO-DG44, 120 h, Table 1, day 5; for inhibition at 50 µM: 50 μM fucose analog, inhibition of core fucosylation of h1F6, read-out: Inhibition at 50 μM; for inhibition at 1000 µM: 1 mM fucose analog, ND = non-core fucosylated antibody not detected due to poor antibody production or inhibition of cell growth
Protocol: Media was supplemented with insulin like growth factor (IGF), penicillin, streptomycin and either 1 mM or 50 μM of the fucose analog (prepared as described supra). On day 5 post inoculation, the culture was centrifuged at 13000 RPM for 5 minutes to pellet cells; antibodies were then purified from supernatant.
(§1) Antibody purification was performed by applying the conditioned media to protein A resin pre-equilibrated with 1× phosphate buffered saline (PBS), pH 7.4. After washing resin with 20 resin bed volumes of 1×PBS, antibodies were eluted with 5 resin bed volumes of Immunopure IgG elution buffer (Pierce Biotechnology, Rockford, Ill.). A 10% volume of 1M tris pH 8.0 was added to neutralize the eluted fraction.

[2] = system: core fucosylation of h1F6 in CHO DG44 cell line; assay: Capillary electrophoresis of oligosaccharides of h1F6 expressed in the presence of alkynyl fucose peracetate; assay type: cell-based, Chinese hamster; conditions: h1F6 expressed with 50 μM alkynyl fucose peracetate; β-galactosidase treated sample (FIG. 1C)
Protocol: To determine the effect of alkynyl fucose peracetate on glycosylation of antibodies, a CHO DG44 cell line expressing a humanized IgG1 anti-CD70 monoclonal antibody, h1F6 (see International Patent Publication WO 06/113909) was cultured at 3.0×10^5 cells per mL in 30 mLs of CHO culture media at 37°, 5% CO2, by shaking at 100 RPM in 125 mL shake flasks. The CHO culture media was supplemented with insulin like growth factor (IGF), penicillin, streptomycin and either 50 or 100 μM alkynyl fucose peracetate (prepared as described in Example 1). […]
To further characterize the glycans on the h1F6 antibodies from Example 3, capillary electrophoresis was performed. […] Labeled oligosaccharides were diluted with water and analyzed by capillary electrophoresis using a Beckman Coulter PA-800 in a N-CHO coated capillary (Beckman Coulter). […] Labeled oligosaccharides were detected using laser induced fluorescence (LFI) with an excitation wavelength of 488λ. Emission fluorescence was detected at 520λ.
Samples of the antibodies were also treated with β-galactosidase to remove galactose. […] Labeled oligosaccharides were diluted with water and analyzed by capillary electrophoresis using a Beckman Coulter PA-800, in a N-CHO coated capillary (Beckman Coulter) running in 40 mM EACA, 0.2% HPMC at pH 4.5. […] Labeled oligosaccharides were detected using laser induced fluorescence (LFI) with an excitation wavelength of 488λ. […]

[3] = system: BALB/C mouse spleen cell and SP2/0 mouse myeloma cell fusion expressing a murine anti-Liv-1 antibody; assay: Antibody core fucosylation in hybridoma, BALB/C-SP2/0 fusion; assay type: cell-based; conditions: 50 μM in Hybridoma Serum Free Media
Protocol: Three antibody expressing hybridoma lines were tested to determine the effect of alkynyl fucose peracetate on antibody core fucosylation from these cell lines. These hybridomas were: 1) a BALB/C mouse spleen cell and a P2X63-AG 8.653 mouse myeloma cell fusion expressing the chimeric anti-ley antigen antibody BR96; 2) a BALB/C mouse spleen cell and a NS0 mouse myeloma cell fusion expressing a murine anti-Liv1 antibody; and 3) a BALB/C mouse spleen cell and a SP2/0mouse myeloma cell fusion expressing a murine anti-Liv-1 antibody. These hybridomas were cultured at 3.0×10^5 cells per mL in 30 mLs of Hybridoma Serum Free Media (Invitrogen, Carlsbad Calif.) supplemented with 50 μM alkynyl fucose peracetate at 37° C., 5% CO2 and shaking at 100 RPM in a 125 mL shake flask. Cultures were fed on day 3 with 2% volume of a feed media. On day four, the culture was split 1:4 into fresh culture media. Cultures were fed with a 6% volume of feed media on days 5, 7, 9 and 10. Conditioned media was collected when the viability of the culture dropped below 60% or on day 13 by passing culture through a 0.2 μm filter.
Antibody purification was performed by applying the conditioned media to a protein A column pre-equilibrated with 1× phosphate buffered saline (PBS), pH 7.4. […]

[4] = system: CHO DG44 cell line producing h1F6; assay: Non-core fucosylated antibody production in different culture media; assay type: cell-based, Chinese hamster; conditions: 50 μM; PowerCHO versus OptiCHO media, day 5
Protocol: To determine the effect of different culture media on non-core fucosylated antibody production, a CHO DG44 cell line producing a humanized IgG1 anti-CD70 monoclonal antibody, h1F6 (see International Patent Publication WO 06/113909), was cultured in various media. The cells (7.5×10^5 cells per mL in 2 mLs) were cultured in PowerCHO (Lonza Group Ltd., Basil, Switzerland) or OptiCHO (Invitrogen, Carlsbad, Calif.) media CHO culture media at 37°, 5% CO2 and shaking at 100 RPM in a 6 well tissue culture plate. Media was supplemented with insulin like growth factor (IGF), penicillin, streptomycin and 50 μM alkynyl fucose peracetate. On day 5 post-inoculation, the culture was centrifuged at 13000 RPM for 5 minutes to pellet cells; antibodies were then purified from supernatant.
as §1, with “fraction. Production of non-core fucosylated antibody was determined as described in Example 7. The proportion of non-core fucosylated to core fucosylated antibody produced from each media was similar.” for “fraction.”

[5] = system: CHO DG44 cell line producing h1F6; assay: Incorporation of fucose analogs into antibodies (h1F6 from CHO DG44 culture); assay type: cell-based, Chinese hamster; conditions: 1 mM
Protocol: The effects of fucose analogs on antibody core fucosylation were tested at concentrations of […] and 1 mM as follows: A CHO DG44 cell line producing a humanized IgG1 anti-CD70 monoclonal antibody, h1F6 (see International Patent Publication WO 06/113909) was cultured at 7.5×10^5 cells per mL in 2 mLs of CHO culture media at 37°, 5% CO2 and shaking at 100 RPM in a 6 well tissue culture plate. Media was supplemented with insulin like growth factor (IGF), penicillin, streptomycin and either 1 mM or 50 μM of the fucose analog (prepared as described supra). On day 5 post inoculation, the culture was centrifuged at 13000 RPM for 5 minutes to pellet cells; antibodies were then purified from supernatant.
as §1, with “fraction. The amount of non-core fucosylated antibody produced was determined as described in Example 7.” for “fraction.”
Certain other fucose analogs were tested for their ability to be incorporated into antibodies. These fucose analogs were tested at concentrations of 50 μM and 1 mM using the methodology as described above and in Example 7.

Row | SMILES | inhibition at 50 µM [1] [%] | inhibition at 1000 µM [1] [%] | oligosaccharide core fucosylated [2] [%] | oligosaccharide non-core fucosylated [2] | core fucosylation [3] | proportion of non-core fucosylated to core fucosylated antibody produced from each media [4] | % Incorporation [5]
1 | C#CC(OC(C)=O)[C@@H](OC(C)=O)[C@@H](OC(C)=O)[C@@H](C=O)OC(C)=O (stereo partly drawn) [Alkynyl fucose peracetate, 5-ethynylarabinose tetraacetate] | > 80 | > 80 | 6 | approximately 85% | inhibited | similar | –
2 | C#CC[C@@H]1OC(OC(C)=O)[C@@H](OC(C)=O)[C@H](OC(C)=O)[C@@H]1OC(C)=O (stereo partly drawn) [propargyl fucose tetraacetate, (3S,4R,5R,6S)-6-(prop-2-ynyl)-tetrahydro-2H-pyran-2,3,4,5-tetrayl tetraacetate] | ~10 | 10 to 20 | – | – | – | – | 80% (1 mM)
